Reference: patent publication US7794957B2, “Eukaryotic genes involved in adult lifespan regulation” (priority 2001, dated 2010)
“Also recorded” adds a separate entry of the source.

Tested on: C. elegans
Test: Antimycin A treatment, adult lifespan analysis
Assay type: in vivo
Description: During a systematic screen of a C. elegans Chromosome I RNAi library it was discovered that animals grown on bacteria expressing atp-3 double-stranded RNA lived much longer than normal (Fraser et al., Nature 408:325 (2000)). Lifespan analysis was conducted at 25° C. as described previously (Kenyon et al., Nature 366:461 (1993)). The pre-fertile period of adulthood was used as t=0 for lifespan analysis. Strains were grown at 20° C. for at least two generations before use in lifespan analysis. Statview 5.0.1 (SAS) software was used for statistical analysis and to determine means and percentiles. In all cases, p values were calculated using the logrank (Mantel-Cox) method.
OP-50 bacteria were spread onto NG plates and allowed to grow for two days at room temperature. 50 μl of 0.01 M Antimycin A (Sigma) dissolved in 100% ethanol was dropped onto bacterial lawn and allowed to dry overnight in a fume hood at room temperature. […] Animals were transferred to new Antimycin A plates every 4 days. Control worms (ethanol only) were handled in the same manner) (Table 1).

[1] = fer-15(b26), fem-1(hc17) + 0.1 μM Antimycin A, 25° C.

Substance: Antimycin A
- effect on lifespan (words) (C. elegans, from hatching through adulthood or regimen not stated, listed as antimycin): substantially increased lifespan; also recorded: increases lifespan
- effect on lifespan (words) (C. elegans, from hatching through adulthood or regimen not stated, listed as antimycin A): increased lifespan
- effect on lifespan (words) (administration to adult worms): increased lifespan
- mean lifespan (animals grown in the presence of 0.1 micromolar antimycin in ethanol): 21 days
- 75th percentile adult lifespan [1]: 25 days
- Mean ± s.e.m. adult lifespan [1]: 20.4 ± 0.7 days
